In the supplement of paper PMC10307832 one finds relative viability data, which are given here for six cell lines.

What all share (assay): relative viability (nuclei count vs DMSO), 5 days (fraction); higher = more cells survive
Compound in the assay “Dasatinib + Navitoclax”: Cc1nc(Nc2ncc(C(=O)Nc3c(C)cccc3Cl)s2)cc(N2CCN(CCO)CC2)n1 [Dasatinib] + CC1(C)CCC(c2ccc(Cl)cc2)=C(CN2CCN(c3ccc(C(=O)NS(=O)(=O)c4ccc(N[C@H](CCN5CCOCC5)CSc5ccccc5)c(S(=O)(=O)C(F)(F)F)c4)cc3)CC2)C1 [Navitoclax] (partner 0.5 µM)
An outline of the steps:
(§1)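 Relative viability equals treated-well nuclei counts divided by vehicle-well nuclei counts. Counts came from 4× images of lung cancer cell lines grown in 1536-well plates for 5 days after pin-tool dosing on the day after seeding. Dosing used one drug alone or a fixed anchor-drug dose plus five library-drug doses (not always all listed) in √10 steps, and values are medians of duplicate plates.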

Compound in the assay “ALW-II-49-7 + Trametinib”: Cc1ccc(C(=O)Nc2cccc(C(F)(F)F)c2)cc1Nc1cncc(C(N)=O)c1 [ALW-II-49-7] + CC(=O)Nc1cccc(-n2c(=O)n(C3CC3)c(=O)c3c(Nc4ccc(I)cc4F)n(C)c(=O)c(C)c32)c1 [Trametinib] (partner 0.02 µM)
An outline of the steps:
as §1

Compound in the assay “XMD13-2 + AZD7762”: C1CC1C(=O)NC2=NNC3=C2C=CC(=C3)C4=CC(=CC=C4)C(=O)NC5CC5 [XMD13-2] + NC(=O)Nc1cc(-c2cccc(F)c2)sc1C(=O)N[C@H]1CCCNC1 [AZD7762] (partner 0.2 µM)
An outline of the steps:
as §1

Compound in the assay “XMD13-2 + Linsitinib”: C1CC1C(=O)NC2=NNC3=C2C=CC(=C3)C4=CC(=CC=C4)C(=O)NC5CC5 [XMD13-2] + C[C@]1(O)C[C@@H](c2nc(-c3ccc4ccc(-c5ccccc5)nc4c3)c3c(N)nccn32)C1 [Linsitinib] (partner 1 µM)
An outline of the steps:
as §1

For NCI-H23, the relative viability came to 0.828 in the assay with Dasatinib + Navitoclax (first compound 0.005 µM); 0.716 with Dasatinib + Navitoclax (first compound 0.01581 µM); 0.896 with Dasatinib + Navitoclax (first compound 0.05 µM); 0.496 with Dasatinib + Navitoclax (first compound 0.1581 µM); 0.315 with Dasatinib + Navitoclax (first compound 0.5 µM); 0.434 with ALW-II-49-7 + Trametinib (first compound 0.08 µM). Moreover, the relative viability with ALW-II-49-7 + Trametinib (first compound 0.253 µM) amounted to 0.371; with ALW-II-49-7 + Trametinib (first compound 0.8 µM), 0.448; with ALW-II-49-7 + Trametinib (first compound 2.53 µM) it was 0.37; with ALW-II-49-7 + Trametinib (first compound 8 µM), 0.37; with XMD13-2 + AZD7762 (first compound 0.05 µM) it was 0.199; in the assay with XMD13-2 + AZD7762 (first compound 0.1581 µM) it was 0.256. Further, the relative viability with XMD13-2 + AZD7762 (first compound 0.5 µM) stood at 0.231; in the assay with XMD13-2 + AZD7762 (first compound 1.581 µM), 0.209; with XMD13-2 + AZD7762 (first compound 5 µM), 0.296; with XMD13-2 + Linsitinib (first compound 0.05 µM) it was 0.558; with XMD13-2 + Linsitinib (first compound 0.1581 µM) it was 0.579; with XMD13-2 + Linsitinib (first compound 0.5 µM), 0.624. Also, the relative viability with XMD13-2 + Linsitinib (first compound 1.581 µM) was 0.537; with XMD13-2 + Linsitinib (first compound 5 µM), 0.58.
Take NCI-H1975: the relative viability amounted to 0.895 with Dasatinib + Navitoclax (first compound 0.005 µM); 1.02 in the assay with Dasatinib + Navitoclax (first compound 0.01581 µM); 1.03 with Dasatinib + Navitoclax (first compound 0.05 µM); 0.412 with Dasatinib + Navitoclax (first compound 0.1581 µM); 0.308 in the assay with Dasatinib + Navitoclax (first compound 0.5 µM); 0.384 in the assay with ALW-II-49-7 + Trametinib (first compound 0.08 µM). The relative viability turned out to be 0.581 in the assay with ALW-II-49-7 + Trametinib (first compound 0.253 µM); 0.288 in the assay with ALW-II-49-7 + Trametinib (first compound 0.8 µM); 0.367 in the assay with ALW-II-49-7 + Trametinib (first compound 2.53 µM); 0.311 with ALW-II-49-7 + Trametinib (first compound 8 µM); 0.857 with XMD13-2 + AZD7762 (first compound 0.05 µM); 0.869 with XMD13-2 + AZD7762 (first compound 0.1581 µM). Also, the relative viability amounted to 0.735 in the assay with XMD13-2 + AZD7762 (first compound 0.5 µM); 0.664 with XMD13-2 + AZD7762 (first compound 1.581 µM); 0.799 with XMD13-2 + AZD7762 (first compound 5 µM); 1.08 with XMD13-2 + Linsitinib (first compound 0.05 µM); 0.926 with XMD13-2 + Linsitinib (first compound 0.1581 µM); 0.968 in the assay with XMD13-2 + Linsitinib (first compound 0.5 µM). For the same cell line, the values for the relative viability with XMD13-2 + Linsitinib (first compound 1.581 µM) and with XMD13-2 + Linsitinib (first compound 5 µM) were 0.972 and 1.07, respectively.
Consider LK-2, for which the relative viability with Dasatinib + Navitoclax (first compound 0.005 µM) was determined as 0.782; with Dasatinib + Navitoclax (first compound 0.01581 µM), 0.594; with Dasatinib + Navitoclax (first compound 0.05 µM), 0.373; with Dasatinib + Navitoclax (first compound 0.1581 µM), 0.292; with Dasatinib + Navitoclax (first compound 0.5 µM), 0.245; with ALW-II-49-7 + Trametinib (first compound 0.08 µM) it was 0.963. The relative viability with ALW-II-49-7 + Trametinib (first compound 0.253 µM) is 0.583; in the assay with ALW-II-49-7 + Trametinib (first compound 0.8 µM) it was 0.636; in the assay with ALW-II-49-7 + Trametinib (first compound 8 µM) it was 0.479; with XMD13-2 + AZD7762 (first compound 0.05 µM) it was 0.626; in the assay with XMD13-2 + AZD7762 (first compound 0.1581 µM), 0.499; in the assay with XMD13-2 + AZD7762 (first compound 0.5 µM), 0.476. The relative viability with XMD13-2 + AZD7762 (first compound 1.581 µM) came out at 0.431; in the assay with XMD13-2 + AZD7762 (first compound 5 µM) it was 0.689; in the assay with XMD13-2 + Linsitinib (first compound 0.05 µM) it was 0.715; with XMD13-2 + Linsitinib (first compound 0.1581 µM), 0.518; in the assay with XMD13-2 + Linsitinib (first compound 0.5 µM), 0.554; with XMD13-2 + Linsitinib (first compound 1.581 µM) it was 0.676. In addition, the relative viability in the assay with XMD13-2 + Linsitinib (first compound 5 µM) is 0.422.
Take EKVX: the relative viability in the assay with Dasatinib + Navitoclax (first compound 0.005 µM) amounted to 0.951; in the assay with Dasatinib + Navitoclax (first compound 0.01581 µM), 0.958; in the assay with Dasatinib + Navitoclax (first compound 0.05 µM) it was 0.821; in the assay with Dasatinib + Navitoclax (first compound 0.1581 µM), 0.407; in the assay with Dasatinib + Navitoclax (first compound 0.5 µM) it was 0.18; with ALW-II-49-7 + Trametinib (first compound 0.08 µM), 0.266. In addition, the relative viability was found to be 0.347 in the assay with ALW-II-49-7 + Trametinib (first compound 0.253 µM); 0.482 with ALW-II-49-7 + Trametinib (first compound 0.8 µM); 0.317 in the assay with ALW-II-49-7 + Trametinib (first compound 2.53 µM); 0.298 with ALW-II-49-7 + Trametinib (first compound 8 µM); 0.888 with XMD13-2 + AZD7762 (first compound 0.05 µM); 0.689 with XMD13-2 + AZD7762 (first compound 0.1581 µM). For the same cell line, the relative viability in the assay with XMD13-2 + AZD7762 (first compound 0.5 µM) was determined as 0.54; with XMD13-2 + AZD7762 (first compound 5 µM), 0.719; with XMD13-2 + Linsitinib (first compound 0.05 µM), 1.16; with XMD13-2 + Linsitinib (first compound 0.1581 µM) it was 0.911; with XMD13-2 + Linsitinib (first compound 0.5 µM) it was 0.992; with XMD13-2 + Linsitinib (first compound 1.581 µM), 0.871. Also, the relative viability with XMD13-2 + Linsitinib (first compound 5 µM) was found to be 1.05.
For NCI-H838, the relative viability worked out at 1.03 with Dasatinib + Navitoclax (first compound 0.005 µM); 0.791 in the assay with Dasatinib + Navitoclax (first compound 0.01581 µM); 0.709 with Dasatinib + Navitoclax (first compound 0.05 µM); 0.389 with Dasatinib + Navitoclax (first compound 0.1581 µM); 0.21 in the assay with Dasatinib + Navitoclax (first compound 0.5 µM); 0.631 in the assay with ALW-II-49-7 + Trametinib (first compound 0.08 µM). The relative viability with ALW-II-49-7 + Trametinib (first compound 0.253 µM) is 0.531; in the assay with ALW-II-49-7 + Trametinib (first compound 0.8 µM), 0.433; with ALW-II-49-7 + Trametinib (first compound 2.53 µM), 0.49; with ALW-II-49-7 + Trametinib (first compound 8 µM), 0.453; in the assay with XMD13-2 + AZD7762 (first compound 0.05 µM), 0.986; with XMD13-2 + AZD7762 (first compound 0.1581 µM), 1.04. Moreover, the relative viability with XMD13-2 + AZD7762 (first compound 0.5 µM) came out at 1.06; with XMD13-2 + AZD7762 (first compound 1.581 µM) it was 0.967; in the assay with XMD13-2 + AZD7762 (first compound 5 µM), 0.954; with XMD13-2 + Linsitinib (first compound 0.05 µM), 1.14; in the assay with XMD13-2 + Linsitinib (first compound 0.1581 µM), 1.03; with XMD13-2 + Linsitinib (first compound 0.5 µM) it was 1.05. Besides, the relative viability with XMD13-2 + Linsitinib (first compound 1.581 µM) stood at 1.06; with XMD13-2 + Linsitinib (first compound 5 µM), 0.985.
In the case of NCI-H2085, the relative viability with Dasatinib + Navitoclax (first compound 0.005 µM) stood at 0.757; with Dasatinib + Navitoclax (first compound 0.01581 µM) it was 0.929; in the assay with Dasatinib + Navitoclax (first compound 0.05 µM) it was 0.737; in the assay with Dasatinib + Navitoclax (first compound 0.1581 µM), 0.411; in the assay with Dasatinib + Navitoclax (first compound 0.5 µM), 0.245; in the assay with ALW-II-49-7 + Trametinib (first compound 0.08 µM), 0.534. For the same cell line, the relative viability in the assay with ALW-II-49-7 + Trametinib (first compound 0.253 µM) amounted to 0.512; with ALW-II-49-7 + Trametinib (first compound 0.8 µM), 0.477; with ALW-II-49-7 + Trametinib (first compound 2.53 µM), 0.562; with ALW-II-49-7 + Trametinib (first compound 8 µM), 0.518; in the assay with XMD13-2 + AZD7762 (first compound 0.05 µM), 0.993; with XMD13-2 + AZD7762 (first compound 0.1581 µM), 0.995. Also, the relative viability in the assay with XMD13-2 + AZD7762 (first compound 0.5 µM) amounted to 1.04; in the assay with XMD13-2 + AZD7762 (first compound 1.581 µM), 0.848; with XMD13-2 + AZD7762 (first compound 5 µM) it was 1.09; with XMD13-2 + Linsitinib (first compound 0.05 µM), 0.894; with XMD13-2 + Linsitinib (first compound 0.1581 µM) it was 0.819; with XMD13-2 + Linsitinib (first compound 0.5 µM), 0.873. The relative viability in the assay with XMD13-2 + Linsitinib (first compound 1.581 µM) amounted to 0.984; in the assay with XMD13-2 + Linsitinib (first compound 5 µM), 0.963.
